Key:
[1] = mouse studies, compared with DOX; cited from earlier work
DOX-resistant cells = details: cited from earlier work
[2] = DOX-treated patients; cited from earlier work
[3] = loss of UV absorbance at 260 nm after X-rays from a silver target; type: physicochemical; details: 20 μg/ml, per 100 Rads
Text: The phenanthroline groups on Dichlorotris(1,10-phenanthroline) ruthenium (II) hydrate absorb in the UV region with a peak absorbance at or near 260 nm. Loss or damage to these groups can be estimated by determining the UV absorbance before and after treatment with X-rays generated by a silver target which is optimum for Ru. Over several experiments replicating treatments with 100 Rad or using increasing amounts of X-rays between 50 Rads and 1000 Rads a loss of UV absorbance at 260 nm of 0.5% to 1% per 100 Rads has been determined.

neuroblastoma lines = assay: nuclear chemotherapy: ^77BrdC on neuroblastoma lines; type: cell-based
Method: An investigation of a method called “nuclear chemotherapy” was done many years previously at Sloan-Kettering Research Institute in New York, by Dr. Chia-Gee Wang and Dr. Lawrence Helson. The research was done using ^77BrdC, where ^77Br (half-life at 57 hours) would undergo a K-capture and deliver 10^6 or more Gy at a small distance. The […] of BrdC to BrdU can be blocked by the non-toxic H4U and therefore excluding BrdC from being incorporated into the DNA pool. Certain transformed cells, on the other hand, would make use of a more primitive kinase to bypass the H4U blockage, and incorporate BrdC to form BrdU. The ^77Br was made by adding an a particle to ^75As in a facility in the U.K. ^77Br was obtained in liquid solution, and ^77BrdC was made. […] The Auger electrons from the ^77BrdU delivered such a high dose of the DNA duplex that no cellular repair was possible.

B-DNA = details: cited from earlier work

## C[C@@H]1O[C@@H](O[C@H]2C[C@](O)(C(=O)CO)Cc3c(O)c4c(c(O)c32)C(=O)c2ccccc2C4=O)[C@H](I)[C@H](O)[C@H]1O [ANN, annamycin]
[1]
  cardiotoxicity: less cardiotoxic
DOX-resistant cells
  cross resistance: lack of cross resistance

## COc1cccc2c1C(=O)c1c(O)c3c(c(O)c1C2=O)C[C@@](O)(C(=O)CO)C[C@@H]3O[C@H]1C[C@H](N)[C@H](O)[C@H](C)O1 [DOX, doxorubicin]
[2]
  frequency of relapse: ≤ 50%

## O.[Cl][Ru][Cl].c1cnc2c(c1)ccc1cccnc12.c1cnc2c(c1)ccc1cccnc12.c1cnc2c(c1)ccc1cccnc12 [Dichlorotris(1,10-phenanthroline) ruthenium (II) hydrate]
[3]
  phenanthroline groups damaged: ~10^14 per ml

## Nc1nc(=O)n(C2CC(O)C(CO)O2)cc1[77Br] (stereo not drawn) [^77BrdC]
Neuroblastoma lines; sensitive lines, no immediate cell death
  effect on sensitive tumor lines: stopped mitosis
Neuroblastoma lines; ten neuroblastoma lines tested, H4U blockage
  sensitivity of neuroblastoma lines: two of the ten lines were sensitive

## CS(C)=O.CS(C)=O.CS(C)=O.CS(C)=O.[Cl][Ru][Cl] [cis-form of [Cl2(Me2SO)4Ru], [Cl2(Me2SO)4Ru]]
B-DNA
  effect on conformation of B-DNA: does not significantly affect the conformation of B-DNA
  effect on thermal stability of B-DNA: increases its thermal stability

## [Cl2(Me2SO)4Ru] [trans-form]
B-DNA; compared with the cis-form
  rate of DNA binding: binds more rapidly

From patent US8278315B2, “Radiotherapy method using x-rays” (priority 2002, dated 2012)
